Reference: patent US8361998B2, “Compounds and their use as IKACh blockers” (AstraZeneca AB, priority 2010, dated 2013)
Structures can show the parent of a compound that is named as a salt. Where two headings read alike, the source gives them in different places.

Biological target: T1, human cardiac ion channel proteins hKir3.1/Kir3.4 (Homo sapiens, UniProt P48544+P48549)
T1 construct: expressed in transfected cells
T1 sequence (P48549 1-501): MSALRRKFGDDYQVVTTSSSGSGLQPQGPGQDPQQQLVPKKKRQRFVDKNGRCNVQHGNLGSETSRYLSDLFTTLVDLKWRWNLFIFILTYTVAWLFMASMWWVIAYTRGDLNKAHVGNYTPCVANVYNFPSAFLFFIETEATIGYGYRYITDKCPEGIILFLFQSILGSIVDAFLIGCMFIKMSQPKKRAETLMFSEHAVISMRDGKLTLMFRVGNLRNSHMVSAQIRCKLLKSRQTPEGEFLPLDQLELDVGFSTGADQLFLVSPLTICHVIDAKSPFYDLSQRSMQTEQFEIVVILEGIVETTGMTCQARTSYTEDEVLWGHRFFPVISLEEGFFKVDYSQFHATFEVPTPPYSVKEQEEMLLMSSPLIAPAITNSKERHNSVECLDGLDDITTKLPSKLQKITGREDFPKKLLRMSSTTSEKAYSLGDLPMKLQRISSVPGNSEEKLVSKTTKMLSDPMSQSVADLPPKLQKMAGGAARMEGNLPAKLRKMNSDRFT
T1 sequence (P48544 1-419): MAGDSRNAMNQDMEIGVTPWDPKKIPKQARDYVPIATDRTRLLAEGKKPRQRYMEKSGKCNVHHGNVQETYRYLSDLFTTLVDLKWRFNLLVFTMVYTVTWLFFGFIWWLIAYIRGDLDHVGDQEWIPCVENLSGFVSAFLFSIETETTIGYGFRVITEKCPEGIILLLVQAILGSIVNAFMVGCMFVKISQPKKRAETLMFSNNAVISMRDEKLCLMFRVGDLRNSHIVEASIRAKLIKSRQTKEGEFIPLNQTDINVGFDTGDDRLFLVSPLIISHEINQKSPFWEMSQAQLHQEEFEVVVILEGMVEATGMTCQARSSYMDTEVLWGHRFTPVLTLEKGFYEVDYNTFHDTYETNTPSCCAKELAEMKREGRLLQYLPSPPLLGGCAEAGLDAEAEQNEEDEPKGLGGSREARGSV
Experiment: Atomic Absorption Screening (AAS) Rb efflux assay of hKir3.1/Kir3.4 block, carbachol/high K+ stimulated, 10-pt or 7-pt CR
Assay type: cell-based
Settings: AAS Rb efflux, CHO-K1 cells expressing hKir3.1/Kir3.4
Procedure, shortened: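 CHO-K1 cells stably co-expressing human Kir3.1/Kir3.4 were Rb-loaded for 3 h at 37° C, preincubated with compound 5 min at RT, then stimulated 10 min with 10 μM carbachol plus 20 mM KCl (final). Supernatant Rb was measured by atomic absorption. Compounds ran at 0.003–67 μmol/L (10-pt) or 0.037–27 μmol/L (7-pt), threefold dilutions; IC50s are means of >4 or >3 replicates respectively.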

[1] = 10-pt CR (0.003 to 67 μmol/L), mean of >4 replicates, read-out: IKACh IC50 10-pt CR, AAS
[2] = 7-pt CR (0.037 to 27 μmol/L), mean of >3 replicates, read-out: IKACh IC50 7-pt CR, AAS

| SMILES | IC50 [1] | IC50 [2] |
| --- | --- | --- |
| CCC[C@@H](CN1CCC1)N(C)C(=O)c1ccc(Cl)cc1 [Example 1.2, (S)-N-(1-(Azetidin-1-yl)pentan-2-yl)-4-chloro-N-methylbenzamide] | 3600 nM |  |
| CCC[C@@H](CN1CCC1)N(C)C(=O)c1ccc(F)c(C)c1 [Example 1.4, (S)-N-(1-(Azetidin-1-yl)pentan-2-yl)-4-fluoro-N,3-dimethyl-benzamide] | 3700 nM |  |
| CC(C)[C@@H](CN1CCCC1)N(C)C(=O)c1ccc(F)cc1Cl [Example 1.17, (S)-2-Chloro-4-fluoro-N-methyl-N-(3-methyl-1-(pyrrolidin-1-yl)butan-2-yl)benzamide] | 4200 nM | 2800 nM |
| Cc1cc(C(=O)N(C)[C@H](CN2CCC2)C2CC2)ccc1F [Example 4.1, (S)—N-(2-(Azetidin-1-yl)-1-cyclopropylethyl)-4-fluoro-N,3-dimethylbenzamide] | 5900 nM |  |
| CN(C(=O)c1ccc(Br)cc1)[C@H](CN1CC(O)C1)C1CC1 [Example 4.4, (S)-4-Bromo-N-(1-cyclopropyl-2-(3-hydroxyazetidin-1-yl)ethyl)-N-methylbenzamide] | 590 nM |  |
| CC(C)[C@@H](CN1CCC1)N(C)C(=O)c1ccc(Cl)cc1 [Example 5.1, (S)-N-(1-(Azetidin-1-yl)-3-methylbutan-2-yl)-4-chloro-N-methylbenzamide] | 6000 nM |  |
| CC(C)[C@@H](CN1CCC1)N(C)C(=O)c1ccc(Br)cc1.O=C(O)CCC(=O)O [Example 5.2] | 1800 nM |  |
| Cc1cc(C(=O)N(C)[C@H](CN2CC(O)C2)C(C)C)ccc1F [Example 6.1, (S)-4-Fluoro-N-(1-(3-hydroxyazetidin-1-yl)-3-methylbutan-2-yl)-N,3-dimethylbenzamide] | 1500 nM |  |
| CC(C)[C@@H](CN1CC(O)C1)N(C)C(=O)c1ccc(Cl)cc1 [Example 6.2, (S)-4-Chloro-N-(1-(3-hydroxyazetidin-1-yl)-3-methylbutan-2-yl)-N-methylbenzamide] | 2600 nM |  |
| Cc1cc(C(=O)N(C)[C@H](CN2CC(O)C2)C2CC2)ccc1F [Example 7.1, (S)—N-(1-Cyclopropyl-2-(3-hydroxyazetidin-1-yl)ethyl)-4-fluoro-N,3-dimethylbenzamide] | 1300 nM |  |
| CN(C(=O)c1ccc(Cl)cc1)[C@H](CN1CC(O)C1)C1CC1 [Example 7.2, (S)-4-Chloro-N-(1-cyclopropyl-2-(3-hydroxyazetidin-1-yl)ethyl)-N-methylbenzamide] | 1800 nM |  |
| CN(C(=O)c1ccc(F)c(Cl)c1)[C@H](CN1CC(O)C1)C1CC1 [Example 7.3, (S)-3-Chloro-N-(1-cyclopropyl-2-(3-hydroxyazetidin-1-yl)ethyl)-4-fluoro-N-methylbenzamide] | 1900 nM |  |
| CCC[C@@H](CN1CC(O)C1)N(C)C(=O)c1ccc(F)c(F)c1 [Example 8.1, (S)-3,4-Difluoro-N-(1-(3-hydroxyazetidin-1-yl)pentan-2-yl)-N-methylbenzamide] | 1700 nM |  |
| CCC[C@@H](CN1CC(O)C1)N(C)C(=O)c1ccc(Cl)cc1 [Example 8.2, (S)-4-Chloro-N-(1-(3-hydroxyazetidin-1-yl)pentan-2-yl)-N-methyl-benzamide, hydrochloride] | 880 nM |  |
| CCC[C@@H](CN1CC(O)C1)N(C)C(=O)c1ccc(F)cc1 [Example 8.6, (S)-4-Fluoro-N-(1-(3-hydroxyazetidin-1-yl)pentan-2-yl)-N-methylbenzamide] | 8500 nM |  |
| CC(C)[C@@H](CN1CC[C@H](O)C1)N(C)C(=O)c1ccc(Cl)cc1 [Example 10.2, 4-Chloro-N-((S)-1-((S)-3-hydroxypyrrolidin-1-yl)-3-methylbutan-2-yl)-N-methylbenzamide hemi tartrate] | 5100 nM | 2000 nM |
| Cc1cc(C(=O)N(C)[C@H](CN2CCCC2)C(C)C)ccc1F [Example 12.1, (S)-4-Fluoro-N,3-dimethyl-N-(3-methyl-1-(pyrrolidin-1-yl)butan-2-yl)benzamide-dihydroxysuccinate] | 15000 nM | 1400 nM |
| Cc1cccc(C(=O)N(C)[C@H](CN2CCCC2)C(C)C)c1 [Example 12.2, (S)-1-(2-(N,3-Dimethylbenzamido)-3-methylbutyl)pyrrolidinium 2,3-dihydroxysuccinate] | 16000 nM | 5800 nM |
| CC(C)[C@@H](CN1CCCC1)N(C)C(=O)c1ccc(F)c(Cl)c1 [Example 16.55, (S)-3-Chloro-4-fluoro-N-methyl-N-(3-methyl-1-(pyrrolidin-1-yl)butan-2-yl)benzamide] | 1900 nM | 1400 nM |
| CC(C)[C@@H](CN1CCCC1)N(C)C(=O)c1ccc(Cl)cc1 [Example 18, (S)-1-(2-(4-Chloro-N-methylbenzamido)-3-methylbutyl)pyrrolidinium chloride] | 6800 nM | 1200 nM |
| CC(C)[C@@H](CN1CCCC1)N(C)C(=O)c1ccc(Br)cc1 [Example 19, (S)-1-(2-(4-bromo-N-methylbenzamido)-3-methylbutyl)pyrrolidinium 3-carboxy-2,3-dihydroxypropanoate] | 4600 nM | 820 nM |

Further lines, with some results ahead:

| IC50 [1] | SMILES | IC50 [2] |
| --- | --- | --- |
| 3500 nM | CC[C@H](C)[C@@H](CN1CC(O)C1)N(C)C(=O)c1ccc(C#N)cc1F [Example 29.7, 4-Cyano-2-fluoro-N-((2S,3S)-1-(3-hydroxyazetidin-1-yl)-3-methylpentan-2-yl)-N-methylbenzamide] |  |
| 1100 nM | CCCC[C@@H](CN1CC(O)C1)N(C)C(=O)c1ccc(C#N)cc1 [Example 33.4, 4-Cyano-N-[(2S)-1-(3-hydroxyazetidin-1-yl)hexan-2-yl]-N-methylbenzamide] |  |
| 550 nM | CCCC[C@@H](CN1CC(O)C1)N(C)C(=O)c1ccc(F)cc1 [Example 33.7, 4-Fluoro-N-[(2S)-1-(3-hydroxyazetidin-1-yl)hexan-2-yl]-N-methylbenzamide] |  |
| 1300 nM | CC(C)C[C@@H](CN1CC(O)C1)N(C)C(=O)c1ccc(F)c(F)c1 [Example 38.1, 3,4-Difluoro-N-[(2S)-1-(3-hydroxyazetidin-1-yl)-4-methylpentan-2-yl]-N-methylbenzamide] |  |
| 110 nM | CC(C)C[C@@H](CN1CC(O)C1)N(C)C(=O)c1ccc(Cl)cc1 [Example 38.2, 4-Chloro-N-[(2S)-1-(3-hydroxyazetidin-1-yl)-4-methylpentan-2-yl]-N-methylbenzamide] |  |
| 3400 nM | CC(C)C[C@@H](CN1CC(O)C1)N(C)C(=O)c1ccc(C#N)cc1F [Example 38.6, 4-Cyano-2-fluoro-N-[(2S)-1-(3-hydroxyazetidin-1-yl)-4-methylpentan-2-yl]-N-methylbenzamide] |  |
| 490 nM | CN(C(=O)c1ccc(C#N)cc1)[C@H](CN1CC(O)C1)C1CCC1 [Example 39.2, (S)-4-Cyano-N-(1-cyclobutyl-2-(3-hydroxyazetidin-1-yl)ethyl)-N-methylbenzamide] |  |
| 3900 nM | CC[C@@H](CN1CC(O)C1)N(C)C(=O)c1ccc(Cl)cc1 [Example 39.12, (S)-4-Chloro-N-(1-(3-hydroxyazetidin-1-yl)butan-2-yl)-N-methylbenzamide] |  |
| 72 nM | CN(C(=O)c1ccc(Cl)cc1)[C@H](CN1CC(O)C1)C1CCC1 [Example 39.14, (S)-4-Chloro-N-(1-cyclobutyl-2-(3-hydroxyazetidin-1-yl)ethyl)-N-methylbenzamide] |  |
| 78 nM | Cc1cc(C(=O)N(C)[C@H](CN2CC(O)C2)C2CCC2)ccc1F [Example 39.16, (S)—N-(1-Cyclobutyl-2-(3-hydroxyazetidin-1-yl)ethyl)-4-fluoro-N,3-dimethylbenzamide] |  |
